Data set [1] is described as follows: Drug metabolism in cynomolgus monkey assessed as 2-(6-carbamoyl-7-methoxyquinolin-4-ylamino)-3-(6-carbamoyl-7-methoxyquinolin-4-ylthio)propanoic acid metabolite level in urine at 30 mg/kg, po administered on day 1, 2 and 4 by radio-LC/MS analysis. The data set is classed as ADME, organism-based, Macaca fascicularis. Details: dose 30 mg/kg, route oral. The following applies: in vivo.

The subject of data set [2] is Cynomolgus monkey. In words: Drug metabolism in cynomolgus monkey assessed as 2-(6-carbamoyl-7-methoxyquinolin-4-ylthio)acetic acid formation at 30 mg/kg, po administered on day 1, 2 and 4 by radio-LC/MS analysis. The data set is classed as ADME, organism-based, Macaca fascicularis. Details: dose 30 mg/kg, route oral. The following applies: in vivo.
Data set [3] can be described thus: Drug metabolism in cynomolgus monkey assessed as 2-(6-carbamoyl-7-methoxyquinolin-4-ylamino)-3-mercaptopropanoic acid metabolite level in liver at 30 mg/kg, po administered on day 1, 2 and 4 by radio-LC/MS analysis. The data set is classed as ADME, organism-based, Macaca fascicularis. Also on record: dose 30 mg/kg, route oral. The following applies: in vivo.
Data set [4] in a line: Drug metabolism in cynomolgus monkey assessed as 2-(6-carbamoyl-7-methoxyquinolin-4-ylamino)-3-(6-carbamoyl-7-methoxyquinolin-4-ylthio)propanoic acid metabolite level in bile at 30 mg/kg, po administered on day 1, 2 and 4 by radio-LC/MS analysis. Type of data set: ADME, organism-based, Macaca fascicularis. Details: dose 30 mg/kg, route oral. The note with it: in vivo.
Data set [5] can be described thus: Drug metabolism in cynomolgus monkey assessed as 3,3'-disulfanediylbis(2-(6-carbamoyl-7-methoxyquinolin-4-ylamino)propanoic acid) metabolite level in bile at 30 mg/kg, po administered on day 1, 2 and 4 by radio-LC/MS analysis. Type of data set: ADME, organism-based, Macaca fascicularis. Details: dose 30 mg/kg, route oral. The note with it: in vivo.
In data set [6] the test system is Plasma. In words: Drug metabolism in cynomolgus monkey assessed as parent compound level in plasma at 30 mg/kg, po administered on day 1, 2 and 4 by radio-LC/MS analysis. The data set is classed as ADME, organism-based, Macaca fascicularis. Also on record: dose 30 mg/kg, route oral. The following applies: in vivo.
The subject of data set [7] is Cynomolgus monkey. Description: Drug metabolism in cynomolgus monkey assessed as 3,3'-disulfanediylbis(2-(6-carbamoyl-7-methoxyquinolin-4-ylamino)propanoic acid) formation at 30 mg/kg, po administered on day 1, 2 and 4 by radio-LC/MS analysis. Also on record: dose 30 mg/kg, route oral. The data set is classed as ADME, organism-based, Macaca fascicularis. The following applies: in vivo.

A short description of data set [8]: Drug metabolism in cynomolgus monkey assessed as parent compound level in liver at 30 mg/kg, po administered on day 1, 2 and 4 by radio-LC/MS analysis. The data set is classed as ADME, organism-based, Macaca fascicularis. Also on record: dose 30 mg/kg, route oral. The following applies: in vivo.
Data set [9] relates to Cynomolgus monkey. In words: Drug metabolism in cynomolgus monkey assessed as parent compound formation at 30 mg/kg, po administered on day 1, 2 and 4 by radio-LC/MS analysis. Also on record: dose 30 mg/kg, route oral. The note with it: in vivo. Type of data set: ADME, organism-based, Macaca fascicularis.
Data set [10] is described as follows: Drug metabolism in cynomolgus monkey assessed as parent compound level in bile at 30 mg/kg, po administered on day 1, 2 and 4 by radio-LC/MS analysis. Type of data set: ADME, organism-based, Macaca fascicularis. Details: dose 30 mg/kg, route oral. The note with it: in vivo.
Data set [11] is described as follows: Drug metabolism in cynomolgus monkey assessed as 2-(6-carbamoyl-7-methoxyquinolin-4-ylamino)-3-((2-(6-carbamoyl-7-methoxyquinolin-4-ylamino)-3-(carboxymethylamino)-3-oxopropyl)disulfanyl)propanoic acid metabolite level in urine at 30 mg/kg, po administered on day 1, 2 and 4 by radio-LC/MS analysis. Type of data set: ADME, organism-based, Macaca fascicularis. Also on record: dose 30 mg/kg, route oral. The following applies: in vivo.

Data set [12] deals with Cynomolgus monkey. In words: Drug metabolism in cynomolgus monkey assessed as 5-(3-(6-carbamoyl-7-methoxyquinolin-4-ylthio)-1-(carboxymethylamino)-1-oxopropan-2-ylamino)-[…]-5-oxopentanoic acid formation at 30 mg/kg, po administered on day 1, 2 and 4 by radio-LC/MS analysis. Also on record: dose 30 mg/kg, route oral. Type of data set: ADME, organism-based, Macaca fascicularis. The following applies: in vivo.

Data set [13] in a line: Drug metabolism in cynomolgus monkey assessed as 2-(6-carbamoyl-7-methoxyquinolin-4-ylamino)-3-(6-carbamoyl-7-methoxyquinolin-4-ylthio)propanoic acid metabolite level in liver at 30 mg/kg, po administered on day 1, 2 and 4 by radio-LC/MS analysis. Type of data set: ADME, organism-based, Macaca fascicularis. Also on record: dose 30 mg/kg, route oral. The note with it: in vivo.

Data set [14] relates to Cynomolgus monkey. Description: Drug metabolism in cynomolgus monkey assessed as 2-(6-carbamoyl-7-methoxyquinolin-4-ylamino)-3-(6-carbamoyl-7-methoxyquinolin-4-ylthio)propanoic acid formation at 30 mg/kg, po administered on day 1, 2 and 4 by radio-LC/MS analysis. Type of data set: ADME, organism-based, Macaca fascicularis. Also on record: dose 30 mg/kg, route oral. The note with it: in vivo.

A short description of data set [15]: Drug excretion in cynomolgus monkey feces assessed as unchanged level of drug at 30 mg/kg, po administered on day 1, 2 and 4 by radio-LC/MS analysis. Type of data set: ADME, organism-based, Macaca fascicularis. Details: dose 30 mg/kg, route oral. The note with it: read-out: Drug excretion.
The nature of data set [16]: Drug metabolism in cynomolgus monkey assessed as 2-(6-carbamoyl-7-methoxyquinolin-4-ylamino)-3-mercaptopropanoic acid metabolite level in bile at 30 mg/kg, po administered on day 1, 2 and 4 by radio-LC/MS analysis. Type of data set: ADME, organism-based, Macaca fascicularis. Details: dose 30 mg/kg, route oral. The following applies: in vivo.
The nature of data set [17]: Drug metabolism in cynomolgus monkey assessed as 5-(3-(6-carbamoyl-7-methoxyquinolin-4-ylthio)-1-(carboxymethylamino)-1-oxopropan-2-ylamino)-[…]-5-oxopentanoic acid metabolite level in liver at 30 mg/kg, po administered on day 1, 2 and 4 by radio-LC/MS analysis. The data set is classed as ADME, organism-based, Macaca fascicularis. Also on record: dose 30 mg/kg, route oral. The note with it: in vivo.

Data set [18] has as its system Cynomolgus monkey. In words: Drug metabolism in cynomolgus monkey assessed as 2-(6-carbamoyl-7-methoxyquinolin-4-ylamino)-3-((2-(6-carbamoyl-7-methoxyquinolin-4-ylamino)-3-(carboxymethylamino)-3-oxopropyl)disulfanyl)propanoic acid formation at 30 mg/kg, po administered on day 1, 2 and 4 by radio-LC/MS analysis. The data set is classed as ADME, organism-based, Macaca fascicularis. Details: dose 30 mg/kg, route oral. The following applies: in vivo.

Data set [19] is described as follows: Drug metabolism in cynomolgus monkey assessed as 2-(6-carbamoyl-7-methoxyquinolin-4-ylthio)acetic acid metabolite level in urine at 30 mg/kg, po administered on day 1, 2 and 4 by radio-LC/MS analysis. The data set is classed as ADME, organism-based, Macaca fascicularis. Details: dose 30 mg/kg, route oral. The following applies: in vivo.
Data set [20] deals with Cynomolgus monkey. In words: Drug metabolism in cynomolgus monkey assessed as 2-(6-carbamoyl-7-methoxyquinolin-4-ylamino)-3-mercaptopropanoic acid formation at 30 mg/kg, po administered on day 1, 2 and 4 by radio-LC/MS analysis. Type of data set: ADME, organism-based, Macaca fascicularis. The note with it: in vivo. Details: dose 30 mg/kg, route oral.
Data set [21] is described as follows: Drug metabolism in cynomolgus monkey assessed as 3,3'-disulfanediylbis(2-(6-carbamoyl-7-methoxyquinolin-4-ylamino)propanoic acid) metabolite level in urine at 30 mg/kg, po administered on day 1, 2 and 4 by radio-LC/MS analysis. Type of data set: ADME, organism-based, Macaca fascicularis. Details: dose 30 mg/kg, route oral. The note with it: in vivo.
The subject of data set [22] is Cynomolgus monkey. Description: Drug retention time in cynomolgus monkey treated with 30 mg/kg, po of [14C]lenvatinib administered on day 1, 2 and 4 by radio-LC/MS analysis. Type of data set: ADME, organism-based, Macaca fascicularis. Details: dose 30 mg/kg, route oral. The note with it: in vivo.
For data set [23], the system named is Cynomolgus monkey. In words: Drug metabolism in cynomolgus monkey treated with 30 mg/kg, po of [14C]lenvatinib administered on day 1, 2 and 4 by radio-LC/MS analysis. Type of data set: ADME, organism-based, Macaca fascicularis. Also on record: dose 30 mg/kg, route oral. The following applies: in vivo.
A short description of data set [24]: Drug metabolism in human liver S9 fraction treated with 50 uM of lenvatinib up to 120 mins by HPLC analysis in presence of GSH and NADPH. Type of data set: ADME, subcellular. The following applies: s9, 2 h.
Data set [25] can be described thus: Drug metabolism in Sprague-Dawley rat liver S9 fraction treated with 50 uM of lenvatinib up to 60 mins by HPLC analysis in presence of GSH and NADPH. The following applies: s9, 1 h.
Data set [26] is described as follows: Drug metabolism in cynomolgus monkey liver S9 fraction treated with 50 uM of lenvatinib up to 120 mins by HPLC analysis in presence of GSH and NADPH. The data set is classed as ADME, subcellular, Macaca fascicularis. The following applies: s9, 2 h.
Data set [27] can be described thus: Drug metabolism in human liver S9 fraction treated with 50 uM of lenvatinib up to 120 mins by HPLC analysis in presence of GSH and absence of NADPH. The data set is classed as ADME. The following applies: s9, 2 h.
Data set [28] can be described thus: Drug metabolism in cynomolgus monkey liver S9 fraction treated with 50 uM of lenvatinib up to 120 mins by HPLC analysis in presence of GSH and absence of NADPH. The following applies: s9, 2 h. The data set is classed as ADME, Macaca fascicularis.
The nature of data set [29]: Drug metabolism in Sprague-Dawley rat liver S9 fraction treated with 50 uM of lenvatinib up to 60 mins by HPLC analysis in presence of GSH and absence of NADPH. The note with it: s9, 1 h.

For the compound `COc1cc2n[14cH]cc(Oc3ccc(NC(=O)NC4CC4)c(Cl)c3)c2cc1C(N)=O.CS(=O)(=O)O`, the Drug metabolism entry in data set [1], in data set [2], in [3], in data set [4], in [5] and in [6] was “metabolite_detected” throughout. Moreover, the Drug metabolism entry in data set [7], in data set [8], in [9], in data set [10], in data set [11] and in [12] was “metabolite_detected” each time. Moreover, the Drug metabolism entry in data set [13], in data set [14], in data set [16], in data set [17], in data set [18] and in data set [19] was “metabolite_detected” each time. Besides, the Drug metabolism result in data set [20] and in data set [21] was “metabolite_detected” each time. In data set [15], the dose excreted is 51%.

In turn, `COc1cc2nccc(N[C@@H](CSSC[C@H](Nc3ccnc4cc(OC)c(C(N)=O)cc34)C(=O)NCC(=O)O)C(=O)O)c2cc1C(N)=O` displayed a Retention_time in [22] of 14.1 min. Moreover, the Drug metabolism result in data set [23] was “metabolite_detected”.

Regarding `COc1cc2nccc(SCC(=O)O)c2cc1C(N)=O`, the Retention_time in data set [22] is 12.2 min. Besides, the Drug metabolism result in data set [23] is listed as “metabolite_detected”.

`COc1cc2nccc(SC[C@H](NC(=O)CC[C@H](N)C(=O)O)C(=O)NCC(=O)O)c2cc1C(N)=O`: the Drug metabolism entry in data set [24], in data set [25], in [26], in [27], in data set [28] and in data set [29] was “metabolite_detected” in each case. The Drug metabolism result in data set [23] is on record as “metabolite_detected”. This compound also returned a Retention_time in data set [22] of 13.1 min.
